In patent publication US20250325684A1, “POTENT ANTI-CANCER CYCLOTIDES” (University of Southern California, priority 2022, published 2025):
Numbered stars: 1 amine (or outer) side, 2 acyl side, 3 side chain; on linkers, the order of the positions; unused ones are H or OH. Bridge positions count the residues as written; N and C are the ends. Square brackets hold non-standard residues; d marks the D form. Peptide text beside a SMILES is read from it. I, II: the chains in the order shown. X1 = O=C(CCc1cn(CCOCCOCCOCCC(=O)[*:2])nn1)[*:1]; isoGln = NC(=O)[C@H](CCC(=O)[*:2])N[*:1]

Assays:
[1] = tested on: HL-60; assay: MTT cell viability, HL-60 cells; assay type: cell-based, human; settings: HL-60 adult acute myeloid leukemia, p53 Null
Description: (§1) Cell viability assay in several human cancer cell lines (See Tables 1 to 10). Cell lines were cultured in RPMI 1640 (or recommended medium when indicated) medium supplemented with 10% fetal calf serum, penicillin (50 IU/mL) and streptomycin ([…]) at 37° C. in 5% CO2. Cell viability studies was carried using the MTT (3-(4,5-dimethylthiazol-2-yl)-2,5-diphenyltetrazolium bromide) assay as previously described (31). Briefly, ≈2×10^3 CRC cells were be seeded in 96-well microtiter plates in 100 μL RPMI 1640 in the presence of 10% calf serum. […] After 1 h, 210 μL/well of full complemented media was added, the cells were grown for 48 h and then treated with 20 μL of a solution of MTT (5 mg/mL) for 2 h. The medium was discarded and DMSO ([…]) was added to each well and incubated with gentle shaking for 20 min at room temperature. The absorbance at 595 nm of the solution is analyzed using a Tecan Genios Multifunctional Microplate Reader (Tecan System Inc) and the background at 670 nm subtracted. RNA-Seq analysis was performed using state-of-the-art bioinformatics tools. Briefly, raw RNA-Seq reads were mapped to human genome (hg38) using STAR aligner (v2.7.3a). Gencode Release 36 reference was used for annotation. Transcript and gene expression levels were quantified using the IsoEM (37) with default parameters. […]
(§2) Cell viability was evaluated using the MTT assay as described above.

[2] = tested on: NCl-H1975; assay: MTT cell viability, NCl-H1975 cells; assay type: cell-based, human; settings: NCl-H1975 lung adenocarcinoma, p53 Mutant
Description: as §1, §2

[3] = tested on: CT26; assay: MTT cell viability, CT26 cells; assay type: cell-based; settings: CT26 murine colon cancer, p53 WT
Description: as §1, §2

[4] = tested on: MSCLC 494; assay: MTT cell viability, MSCLC 494 cells; assay type: cell-based; settings: MSCLC 494 murine small cell lung cancer
Description: (§3) Cell viability assay in several human cancer cell lines (See Tables 1 to 10). Cell lines were cultured in RPMI 1640 (or recommended medium when indicated) medium supplemented with 10% fetal calf serum, penicillin (50 IU/mL) and streptomycin ([…]) at 37° C. in 5% CO2. Cell viability studies was carried using the MTT (3-(4,5-dimethylthiazol-2-yl)-2,5-diphenyltetrazolium bromide) assay as previously described (31). Briefly, ≈2×10^3 CRC cells were be seeded in 96-well microtiter plates in 100 μL RPMI 1640 in the presence of 10% calf serum. […] After 1 h, 210 μL/well of full complemented media was added, the cells were grown for 48 h and then treated with 20 μL of a solution of MTT (5 mg/mL) for 2 h. The medium was discarded and DMSO ([…]) was added to each well and incubated with gentle shaking for 20 min at room temperature. The absorbance at 595 nm of the solution is analyzed using a Tecan Genios Multifunctional Microplate Reader (Tecan System Inc) and the background at 670 nm subtracted. RNA-Seq analysis was performed using state-of-the-art bioinformatics tools. Briefly, raw RNA-Seq reads were mapped to human genome (hg38) using STAR aligner (v2.7.3a). Gencode Release 36 reference was used for annotation. Transcript and gene expression levels were quantified using the IsoEM (37) with default parameters. Counts per million (CPM) method is used for normalization. Differential expression was done using DESeq2 with default parameters. Genes involved in different biological pathways (human) were searched from Geneontology (http://geneontology.org/). Bioinformatics results can be validated by using Partek Flow (v10.0.21.0912), a bioinformatics pipeline developed by Zymo Research (https://www.zymoresearch.com/).
as §2

[5] = tested on: 4T1; assay: MTT cell viability, 4T1 cells; assay type: cell-based; settings: 4T1 murine breast cancer, p53 WT
Description: as §1, §2

[6] = tested on: NCl-H1395; assay: MTT cell viability, NCl-H1395 cells; assay type: cell-based, human; settings: NCl-H1395 lung adenocarcinoma, p53 WT
Description: as §1, §2

[7] = tested on: MV4-11; assay: MTT cell viability, MV4-11 cells; assay type: cell-based, human; settings: MV4-11 childhood acute monocytic leukemia, p53 WT
Description: as §3, §2

[8] = tested on: SKOV 3; assay: MTT cell viability, SKOV 3 ovarian cells; assay type: cell-based, human; settings: p53 Mutant
Description: (§4) Cell viability assay in several human cancer cell lines (See Tables 1 to 10). Cell lines were cultured in RPMI 1640 (or recommended medium when indicated) medium supplemented with 10% fetal calf serum, penicillin (50 IU/mL) and streptomycin ([…]) at 37° C. in 5% CO2. Cell viability studies was carried using the MTT (3-(4,5-dimethylthiazol-2-yl)-2,5-diphenyltetrazolium bromide) assay as previously described (31). Briefly, ≈2×10^3 CRC cells were be seeded in 96-well microtiter plates in 100 μL RPMI 1640 in the presence of 10% calf serum. After 24 h incubation the cells were washed with PBS and treated with 30 μL/well of PBS or RPMI 1640 (or recommended) media containing cyclotides MCo-52, MCoTI-I (used as negative control), nutlin-3a (used as positive control) or MI-77301 (used as positive control for p53-mutated or p53-null cells) at the indicated doses for 1 h at 37° C. in 5% CO2. After 1 h, 210 μL/well of full complemented media was added, the cells were grown for 48 h and then treated with 20 μL of a solution of MTT (5 mg/mL) for 2 h. The medium was discarded and DMSO ([…]) was added to each well and incubated with gentle shaking for 20 min at room temperature. The absorbance at 595 nm of the solution is analyzed using a Tecan Genios Multifunctional Microplate Reader (Tecan System Inc) and the background at 670 nm subtracted. RNA-Seq analysis was performed using state-of-the-art bioinformatics tools. Briefly, raw RNA-Seq reads were mapped to human genome (hg38) using STAR aligner (v2.7.3a). Gencode Release 36 reference was used for annotation. Transcript and gene expression levels were quantified using the IsoEM (37) with default parameters. Counts per million (CPM) method is used for normalization. Differential expression was done using DESeq2 with default parameters. Genes involved in different biological pathways (human) were searched from Geneontology (http://geneontology.org/). Bioinformatics results can be validated by using Partek Flow (v10.0.21.0912), a bioinformatics pipeline developed by Zymo Research (https://www.zymoresearch.com/).
(§5) Tables 1 through 10 show in vitro activity of cyclotide MCo-52-2-cTAT against different human cancer cell lines, some with null-, mutated, or wildtype p53 phenotypes. Cell viability was evaluated using the MTT assay as described above.

[9] = tested on: LLC-1; assay: MTT cell viability, LLC-1 cells; assay type: cell-based; settings: LLC-1 murine lung cancer, p53 WT
Description: as §1, §2

[10] = tested on: ES-2; assay: MTT cell viability, ES-2 ovarian cells; assay type: cell-based, human; settings: p53 Mutant
Description: as §4, §5

[11] = tested on: MIA PaCa-2; assay: MTT cell viability, MIA PaCa-2 cells; assay type: cell-based, human; settings: MIA PaCa-2 pancreatic ductal adenocarcinoma, p53 Mutant
Description: as §3, §2

[12] = tested on: NCl-H69; assay: MTT cell viability, NCl-H69 cells; assay type: cell-based, human; settings: NCl-H69 lung small cell carcinoma, p53 Mutant
Description: as §3, §2

[13] = tested on: NCl-H292; assay: MTT cell viability, NCl-H292 cells; assay type: cell-based, human; settings: NCl-H292 lung mucoepidermoid carcinoma, p53 WT
Description: as §1, §2

[14] = tested on: MOLM-13; assay: MTT cell viability, MOLM-13 cells; assay type: cell-based, human; settings: MOLM-13 adult acute myeloid leukemia, p53 WT
Description: as §3, §2

[15] = tested on: NCl-H522; assay: MTT cell viability, NCl-H522 cells; assay type: cell-based, human; settings: NCl-H522 lung adenocarcinoma, p53 Mutant (Deletion)
Description: as §3, §2

[16] = tested on: LNCaP; assay: MTT cell viability, LNCaP cells; assay type: cell-based; settings: LNCaP prostate carcinoma, p53 WT, read-out: Cell viability, Human Prostate Cancer Cells
Description: as §4, §5

[17] = tested on: NCl-H2347; assay: MTT cell viability, NCl-H2347 cells; assay type: cell-based, human; settings: NCl-H2347 lung adenocarcinoma, p53 Mutant
Description: as §1, §2

For COc1ccc(C2=N[C@@H](c3ccc(Cl)cc3)[C@@H](c3ccc(Cl)cc3)N2C(=O)N2CCNC(=O)C2)c(OC(C)C)c1 [Nutlin 3A], the EC50 [1] was 33.3 ± 4.4 µM, the EC50 [2] was greater than 100 µM and the EC50 [3] was 9.8 ± 1.2 µM. The EC50 [4] was greater than 100 µM, the EC50 [5] was 28.5 ± 8.6 µM and the EC50 [6] was 23.1 ± 5.6 µM. It also gave an EC50 [7] of 0.7 ± 0.1 µM, an EC50 [8] greater than 100 µM and an EC50 [9] of 9.4 ± 1.2 µM. For the same compound, the EC50 [10] was 92.3 ± 1.2 µM, the EC50 [11] was greater than 50 µM and the EC50 [12] was greater than 50 µM. The EC50 [13] was 19.2 ± 2.9 µM, the EC50 [14] was 1.4 ± 0.1 µM and the EC50 [15] was greater than 50 µM. It also gave an EC50 [16] of 19.7 ± 1.3 µM and an EC50 [17] of 25.3 ± 5.5 µM.

Compound N=C(N)NCCC[C@@H]1NC(=O)[C@@H](CCCNC(=N)N)NC(=O)[C@H](CCCCN)NC(=O)[C@@H](N)CCCCNC(=O)CC[C@@H](C(=O)O)NC(=O)[C@@H](CCCNC(=N)N)NC(=O)[C@H](CCCNC(=N)N)NC(=O)[C@@H](CCCCN)NC(=O)[C@H](CCCCN)NC(=O)[C@@H](CCCNC(=N)N)NC(=O)CNC(=O)[C@@H](CCCNC(=N)N)NC1=O [cTAT] (H-KK[dR]R[dR]G[dR]K[dK]R[dR]E-OH; lactam 1-12; N-terminus and C-terminus assumed) has an EC50 [1] greater than 100 µM, an EC50 [2] greater than 100 µM and an EC50 [3] greater than 100 µM. It also gave an EC50 [4] greater than 100 µM, an EC50 [5] greater than 100 µM and an EC50 [6] greater than 100 µM. For the same compound, the EC50 [7] was greater than 100 µM, the EC50 [8] was greater than 100 µM and the EC50 [9] was greater than 100 µM. It also gave an EC50 [10] greater than 100 µM, an EC50 [11] greater than 100 µM and an EC50 [12] greater than 100 µM. For the same compound, the EC50 [13] was greater than 100 µM, the EC50 [14] was greater than 100 µM and the EC50 [15] was greater than 100 µM. The EC50 [16] was greater than 100 µM and the EC50 [17] was greater than 100 µM.

“I: cyclo(ACICRHDSYCGSGSDGGVCPNLYLLCRRDKDCPG) / II: KK[dR]R[dR]G[dR]K[dK]R[dR][isoGln] (disulfide I:2-I:19, I:4-I:26, I:10-I:32; linker I:30-II:N via X1; lactam II:1-II:C) [Cyclotide 52-2-cTAT]” gave an EC50 [8] of 19.1 ± 0.1 µM, an EC50 [10] of 6.38 ± 0.1 µM and an EC50 [11] of 15.4 ± 1.6 µM. For the same compound, the EC50 [16] was 6.3 ± 1.1 µM.
